What was measured:
chickweed [1] = assay: Test B preemergence/postemergence greenhouse plant response rating 0 to 10; assay type: in vivo, Stellaria media; details: POSTEMERGENCE
In short: (§1)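 Planted seeds are treated preemergence with compound dissolved in a non-phytotoxic solvent, while postemergence applications go onto plants of two to eighteen cm. Plants stay in the greenhouse twelve to sixteen days and are then rated visually relative to controls.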

corn = assay: as above; assay type: in vivo, Zea mays; details: for Plant response rating, Corn: 0 to 10 scale
In short: as §1

crabgrass = assay: as above; assay type: in vivo, Digitaria spp.; details: for Plant response rating, Crabgrass: 0 to 10 scale
In short: as §1

morningglory [2] = assay: as above; assay type: in vivo, Ipomoea hederacea; details: 0 to 10 scale
In short: as §1

rape = assay: as above; assay type: in vivo, Brassica napus; details: 0 to 10 scale
In short: as §1

sorghum = assay: as above; assay type: in vivo, Sorghum bicolor; details: 0 to 10 scale
In short: as §1

soybean [3] = assay: as above; assay type: in vivo, Glycine max; details: 0 to 10 scale
In short: as §1

wheat = assay: as above; assay type: in vivo, Triticum aestivum; details: 0 to 10 scale
In short: as §1

wild oat = assay: as above; assay type: in vivo, Avena fatua; details: POSTEMERGENCE, 0 to 10 scale
In short: as §1

purple nutsedge = assay: as above; assay type: in vivo, Cyperus rotundus; details: 0 to 10 scale
In short: as §1

barley = assay: Test C preemergence/postemergence greenhouse plant response rating 0 to 100; assay type: in vivo, Hordeum vulgare; details: POSTEMERGENCE
From the text: (§2) The compounds evaluated in this test were formulated in a non-phytoxic solvent and applied to the soil surface before plant seedlings emerged (preemergence application), to water that covered the soil surface (flood application), and to plants that were in the one-to-four leaf stage (postemergence application). A sandy loam soil was used for the preemergence and postemergence tests, while a silt loam soil was used in the flood test. Water depth was approximately 2.5 cm for the flood test and was maintained at this level for the duration of the test. Plant species in the preemergence and postemergence tests consisted of barley (Hordeum vulgare), bedstraw (Galium aparine), blackgrass (Alopecurus myosuroides), chickweed (Stellaria media), corn (Zea mays), cotton (Gossypium hirsutum), crabgrass (Digitaria sanguinalis), downy brome (Bromus tectorum), giant foxtail (Setaria faberii), lambsquarters (Chenopodium album), morningglory (Ipomoea hederacea), pigweed ([…]), rape (Brassica napus), ryegrass (Lolium multiflorum), sorghum (Sorghum bicolor), soybean (Glycine max), speedwell (Veronica persica), sugar beet (Beta vulgaris), velvetleaf (Abutilon theophrasti), wheat (Triticum aestivum), wild buckwheat (Polygonum convolvulus), and wild oat (Avena fatua). All plant species were planted one day before application of the compound for the preemergence portion-of this test. Plantings of these species were adjusted to produce plants of appropriate size for the post-emergence portion of the test. […] All plant species were grown using normal greenhouse practices. Visual evaluations of injury expressed on treated plants, when compared to untreated controls, were recorded approximately fourteen to twenty one days after application of the test compound. […] A dash (-) response means no test result.

bedstraw = assay: as above; assay type: in vivo, Galium aparine; details: POSTEMERGENCE
From the text: as §2

chickweed [4] = assay: as above; assay type: in vivo, Stellaria media; details: POSTEMERGENCE
From the text: as §2

downy brome = assay: as above; assay type: in vivo, Bromus tectorum; details: POSTEMERGENCE
From the text: as §2

morningglory [5] = assay: as above; assay type: in vivo, Ipomoea hederacea; details: POSTEMERGENCE
From the text: as §2

soybean [6] = assay: as above; assay type: in vivo, Glycine max; details: POSTEMERGENCE
From the text: as §2

wild buckwheat = assay: as above; assay type: in vivo, Polygonum convolvulus; details: POSTEMERGENCE
From the text: as §2

umbrella sedge = assay: Test C flood test plant response rating 0 to 100; assay type: in vivo, Cyperus difformis
From the text: as §2

CC(C)N1C(=O)COc2cc(F)c(-c3nn4c(c3Cl)CCCC4)cc21 [Compound 31]
Plant response rating, Chickweed (chickweed [1]; Rate 10 g/ha, 0 to 10 scale): 10 | Plant response rating (0 to 10 scale), Chickweed (chickweed [1]; Rate 50 g/ha): 10 | Plant response rating, Corn (corn; POSTEMERGENCE, Rate 10 g/ha): 4 | Plant response rating (0 to 10 scale), Corn (corn; POSTEMERGENCE, Rate 50 g/ha): 3 | Plant response rating, Corn (corn; PREEMERGENCE, Rate 50 g/ha): 0 | Plant response rating, Crabgrass (crabgrass; POSTEMERGENCE, Rate 10 g/ha): 4 | Plant response rating (0 to 10 scale), Crabgrass (crabgrass; POSTEMERGENCE, Rate 50 g/ha): 4 | Plant response rating, Crabgrass (crabgrass; PREEMERGENCE, Rate 10 g/ha): 0 | Plant response rating, Crabgrass (crabgrass; PREEMERGENCE, Rate 50 g/ha): 2 | Plant response rating, Morningglory (morningglory [2]; POSTEMERGENCE, Rate 10 g/ha): 9 | Plant response rating, Morningglory (morningglory [2]; POSTEMERGENCE, Rate 50 g/ha): 10 | Plant response rating, Morningglory (morningglory [2]; PREEMERGENCE, Rate 50 g/ha): 5 | Plant response rating, Rape (rape; POSTEMERGENCE, Rate 10 g/ha): 5 | Plant response rating, Rape (rape; POSTEMERGENCE, Rate 50 g/ha): 9 | Plant response rating, Rape (rape; PREEMERGENCE, Rate 50 g/ha): 1 | Plant response rating, Sorghum (sorghum; POSTEMERGENCE, Rate 10 g/ha): 5 | Plant response rating, Sorghum (sorghum; POSTEMERGENCE, Rate 50 g/ha): 4 | Plant response rating, Sorghum (sorghum; PREEMERGENCE, Rate 50 g/ha): 0 | Plant response rating, Soybean (soybean [3]; POSTEMERGENCE, Rate 10 g/ha): 7 | Plant response rating, Soybean (soybean [3]; POSTEMERGENCE, Rate 50 g/ha): 7 | Plant response rating, Soybean (soybean [3]; PREEMERGENCE, Rate 50 g/ha): 0 | Plant response rating, Wheat (wheat; POSTEMERGENCE, Rate 10 g/ha): 5 | Plant response rating, Wheat (wheat; POSTEMERGENCE, Rate 50 g/ha): 5 | Plant response rating, Wheat (wheat; PREEMERGENCE, Rate 50 g/ha): 1 | Plant response rating, Wild oat (wild oat; Rate 10 g/ha): 5 | Plant response rating, Wild oat (wild oat; Rate 50 g/ha): 6 | Plant response rating, Nutsedge (purple nutsedge; POSTEMERGENCE, Rate 10 g/ha): 2 | Plant response rating, Nutsedge (purple nutsedge; POSTEMERGENCE, Rate 50 g/ha): 5 | Plant response rating, Nutsedge (purple nutsedge; PREEMERGENCE, Rate 50 g/ha): 0 | Plant response rating Barley Igri (barley; 62 g/ha, 0 to 100 scale): 50 | Plant response rating (0 to 100), Barley Igri (barley; Rate 1 g/ha): 20 | Plant response rating (0 to 100), Barley Igri (barley; Rate 4 g/ha): 30 | Plant response rating (0 to 100), Barley Igri (barley; Rate 16 g/ha): 40 | Plant response rating, Bedstraw (bedstraw; 62 g/ha, 0 to 100 scale): 100 | Plant response rating (0 to 100), Bedstraw (bedstraw; Rate 1 g/ha): 75 | Plant response rating (0 to 100), Bedstraw (bedstraw; Rate 4 g/ha): 85 | Plant response rating (0 to 100), Bedstraw (bedstraw; Rate 16 g/ha): 100 | Plant response rating, Chickweed (chickweed [4]; 62 g/ha, 0 to 100 scale): 90 | Plant response rating (0 to 100), Chickweed (chickweed [4]; Rate 4 g/ha): 20 | Plant response rating (0 to 100), Chickweed (chickweed [4]; Rate 16 g/ha): 80 | Plant response rating Downy Brome (downy brome; 62 g/ha, 0 to 100 scale): 40 | Plant response rating (0 to 100), Downy Brome (downy brome; Rate 1 g/ha): 10 | Plant response rating (0 to 100), Downy Brome (downy brome; Rate 4 g/ha): 20 | Plant response rating (0 to 100), Downy Brome (downy brome; Rate 16 g/ha): 40 | Plant response rating, Morningglory (morningglory [5]; 62 g/ha, 0 to 100 scale): 100 | Plant response rating (0 to 100), Morningglory (morningglory [5]; Rate 1 g/ha): 70 | Plant response rating (0 to 100), Morningglory (morningglory [5]; Rate 4 g/ha): 100 | Plant response rating (0 to 100), Morningglory (morningglory [5]; Rate 16 g/ha): 100 | Plant response rating, Soybean (soybean [6]; 62 g/ha, 0 to 100 scale): 80 | Plant response rating (0 to 100), Soybean (soybean [6]; Rate 1 g/ha): 30 | Plant response rating (0 to 100), Soybean (soybean [6]; Rate 4 g/ha): 40 | Plant response rating (0 to 100), Soybean (soybean [6]; Rate 16 g/ha): 60 | Plant response rating, Wild buckwheat (wild buckwheat; 62 g/ha, 0 to 100 scale): 100 | Plant response rating (0 to 100), Wild buckwheat (wild buckwheat; Rate 1 g/ha): 70 | Plant response rating (0 to 100), Wild buckwheat (wild buckwheat; Rate 4 g/ha): 70 | Plant response rating (0 to 100), Wild buckwheat (wild buckwheat; Rate 16 g/ha): 100 | Plant response rating (0 to 100), Umbrella sedge (umbrella sedge; POSTEMERGENCE section, flood test, Rate 1 g/ha): 0 | Plant response rating (0 to 100), Umbrella sedge (umbrella sedge; POSTEMERGENCE section, flood test, Rate 4 g/ha): 0 | Plant response rating (0 to 100), Umbrella sedge (umbrella sedge; Rate 16 g/ha, under POSTEMERGENCE head (flood test species)): 0 | Plant response rating Umbrella sedge (umbrella sedge; flood test species listed under POSTEMERGENCE, 62 g/ha, 0 to 100 scale): 80

Source: patent publication US6358885B1, “Substituted phenylheterocyclic herbicides” (Mississippi State University, priority 1992, dated 2002)
